# Results from patent US11911393B2, “Non-catalytic substrate-selective p38alpha-specific MAPK inhibitors with endothelial-stabilizing and anti-inflammatory activity, and methods of use thereof” (University of Maryland, Baltimore, priority 2016, dated 2024).
# System: IL-8-directed neutrophil TEM through HMVECLs
# Assay: Neutrophil transendothelial migration (TEM) assay
# Type: cell-based, human
# Settings: 10 μM, HMVECLs preincubated at 39.5° C. for 6 h
smiles,measurement,value
"C[S+]([O-])c1ccc(-c2nc(-c3ccncc3)c(-c3ccc(F)cc3)[nH]2)cc1 (stereo not shown) [SB203580, reference compound]",reduction of hyperthermia-augmented neutrophil TEM,84%
